Assay results: patent publication US10946029B2, “Dry powder formulation comprising a corticosteroid and a beta-adrenergic for administration by inhalation” (CHIESI FARMACEUTICI S.p.A., priority 2012, dated 2021)

Tests used:
[1] = Particle size distribution by laser diffraction (Malvern apparatus); assay type: physicochemical; conditions: micronised beclometasone dipropionate; for Span: [d(v,0.9)−d(v,0.1)]/d(v,0.5); for d (v, 0.1): volume diameter of 10% of the particles; for d (v, 0.5): volume diameter of 50% of the particles; for d (v, 0.9): volume diameter of 90% of the particles
Experimental: The size of the particles active is determined by measuring the characteristic equivalent sphere diameter, known as volume diameter, by laser diffraction. In the reported examples, the volume diameter has been determined using a Malvern apparatus, However, other equivalent apparatus may be used by the skilled person in the art.
(§1) The particle size was determined by laser diffraction using a Malvern apparatus. The parameter taken into consideration was the VD in micron of 10%, 50% and 90% of the particles expressed as d(v,0.1), d(v, 0.5) and d(v, 0.9), respectively, which correspond to the mass diameter assuming a size independent density for the particles. The span [d(v,0.9)−d(v,0.1)]/d(v,0.5) is also reported. The Specific Surface Area (SSA) was determined by BET nitrogen adsorption using a Coulter SA3100 apparatus as a mean of three determinations.

[2] = Specific Surface Area by BET nitrogen adsorption (Coulter SA3100); assay type: physicochemical; conditions: micronised beclometasone dipropionate; mean of three determinations
Experimental: Advantageously, the micronized particles of BDP have also a specific surface area comprised between 5.5 and 7.0 m^2/g, preferably between 5.9 and 6.8 m^2/g. The Specific Surface Area is determined by Brunauer-Emmett-Teller (BET) nitrogen adsorption method according to a procedure known in the art.
as §1

CCC(=O)OCC(=O)[C@@]1(OC(=O)CC)[C@@H](C)C[C@H]2[C@@H]3CCC4=CC(=O)C=C[C@]4(C)[C@@]3(Cl)[C@@H](O)C[C@@]21C [Batch 3, beclometasone dipropionate]
Span [1]: 1.19 | d (v, 0.1) [1]: 0.95 μm | d (v, 0.5) [1]: 1.71 μm | d (v, 0.9) [1]: 2.97 μm | SSA [2]: 6.12 m^2/g

CCC(=O)OCC(=O)[C@@]1(OC(=O)CC)[C@@H](C)C[C@H]2[C@@H]3CCC4=CC(=O)C=C[C@]4(C)[C@@]3(Cl)[C@@H](O)C[C@@]21C [Batch 4, beclometasone dipropionate]
Span [1]: 1.54 | d (v, 0.1) [1]: 0.91 μm | d (v, 0.5) [1]: 1.84 μm | d (v, 0.9) [1]: 3.76 μm | SSA [2]: 6.28 m^2/g

CCC(=O)OCC(=O)[C@@]1(OC(=O)CC)[C@@H](C)C[C@H]2[C@@H]3CCC4=CC(=O)C=C[C@]4(C)[C@@]3(Cl)[C@@H](O)C[C@@]21C [Batch 2, beclometasone dipropionate]
Span [1]: 1.31 | d (v, 0.1) [1]: 0.96 μm | d (v, 0.5) [1]: 1.81 μm | d (v, 0.9) [1]: 3.33 μm | SSA [2]: 5.90 m^2/g

CCC(=O)OCC(=O)[C@@]1(OC(=O)CC)[C@@H](C)C[C@H]2[C@@H]3CCC4=CC(=O)C=C[C@]4(C)[C@@]3(Cl)[C@@H](O)C[C@@]21C [Batch 1, beclometasone dipropionate]
Span [1]: 1.41 | d (v, 0.1) [1]: 0.86 μm | d (v, 0.5) [1]: 1.63 μm | d (v, 0.9) [1]: 3.15 μm | SSA [2]: 6.61 m^2/g
